Article PMC7132332 (Biochemistry, 2020)

Target: T1, WecA (Escherichia coli, UniProt P0AC78)
T1 sequence (P0AC78 1-367): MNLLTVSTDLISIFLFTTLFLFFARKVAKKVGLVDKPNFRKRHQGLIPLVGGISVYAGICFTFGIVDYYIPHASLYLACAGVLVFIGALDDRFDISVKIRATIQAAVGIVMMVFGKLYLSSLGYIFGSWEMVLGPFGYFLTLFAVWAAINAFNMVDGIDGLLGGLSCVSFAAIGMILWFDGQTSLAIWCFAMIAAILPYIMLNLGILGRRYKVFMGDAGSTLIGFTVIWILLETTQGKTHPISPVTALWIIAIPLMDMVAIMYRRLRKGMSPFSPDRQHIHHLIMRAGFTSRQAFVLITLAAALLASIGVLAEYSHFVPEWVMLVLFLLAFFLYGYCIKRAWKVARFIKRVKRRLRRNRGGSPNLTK
Experiment: HPLC transferase assay with cell envelope fraction
Assay type: biochemical
Details: 2CN- or NBD-B(4Z)P; overexpressed recombinant WecA; bicine pH 8.5, MgCl2, cholate, 37 °C

CC(=O)N[C@H]1[C@@H](OP(=O)(O)OP(=O)(O)OC[C@H]2O[C@@H](n3ccc(=O)[nH]c3=O)[C@H](O)[C@@H]2O)O[C@H](CO)[C@@H](O)[C@@H]1O [UDP-GlcNAc]
HPLC transferase assay with cell envelope fraction: able to convert fl-BPs with far lower concentrations of UDP-GlcNAc
